Patent publication US5358955A, “Aryl and heteroarylmethoxyphenyl inhibitors of leukotriene biosynthesis” (Abbott Laboratories, priority 1993, dated 1994)

system: Stimulated LTB4 Formation in Human Polymorphonuclear Leukocytes; experiment: Inhibition of calcium ionophore-stimulated LTB4 formation in human polymorphonuclear leukocytes (PMNL); format: cell-based; conditions: at ~0.095 μmol, calcium ionophore 8.3 μM
Procedure: Inhibition of leukotriene biosynthesis was evaluated in an assay involving calcium ionophore-induced LTB4 expressed in human polymorphornuclear leukocytes (PMNL). Human PMNL isolated from heparinized (20 USP units/mL) venous blood (25 mL) obtained from healthy volunteers was layered over an equal volume of Ficoll-Hypaque Mono-Poly Resolving Medium (ICN Flow, Costa Mesa, CA) and centrifugated at 400 × g for 40 min at 20° C. The PMNL was collected, erythrocytes lysed and washed 2× and suspended at 1.0×10^7 cells/mL in Earle's balanced salt solution with 17 mM Earle's HEPES. Aliquots of the cell suspension were preincubated with test compounds dissolved in DMSO (final concentration <2%) for 15 min. and stimulated with calcium ionophore (final concentration 8.3 μM) for 10 min. at 37° C. Incubations were stopped with the addition of two volumes of ice-cold methanol followed by centrifuging the cell suspensions at 4° C. for 10 min at 450×g. The amount of LTB4 in the methanol extract was analyzed by enzyme-linked linked immunoassay or by HPLC analysis.

SMILES	% Inhibition, Stimulated LTB4 Formation in Human Polymorphonuclear Leukocytes
CN(O)C(=O)CSC(CCCc1ccc(Cl)cc1)c1ccc(OCc2ccc3ccccc3n2)cc1 (stereo not drawn) [Example 1, {[4-(4-Chlorophenyl)-1-(4-[2-quinolinylmethoxy]phenyl)butyl]thio}acetic acid (N-hydroxy-N-methyl)amide]	63%

same assay, conditions: calcium ionophore 8.3 μM.3 μM, 15 min preincubation, 37° C, read-out: IC50, In Vitro Inhibitory Potencies Against Stimulated LTB4 Formation in Human Polymorphonuclear Leukocytes

SMILES	IC50
CNOC(=O)C(c1ccc(OCc2ccc3ccccc3n2)cc1)C1CCCCC1 (stereo not drawn) [Example 15, N-Methyl-O-{2-cyclohexyl-2-[4-(quinolin-2-yl-methoxy)phenyl]-acetyl}-hydroxylamine]	95 nM
CNOC(=O)C(CC1CCCCC1)c1ccc(OCc2ccccn2)cc1 (stereo not drawn) [Example 14, N-Methyl-O-{3-cyclohexyl-2-[4-(pyrid-2-yl-methoxy)phenyl]propionyl}-hydroxylamine]	1650 nM
CNOC(=O)C(CC1CCCCC1)c1ccc(OCc2ccc3ccccc3n2)cc1 (stereo not drawn) [Example 13, N-Methyl-O-{3-cyclohexyl-2-[4-(quinolin-2-yl-methoxy)phenyl]-propionyl}-hydroxylamine]	68 nM

Further lines, results first:

IC50	SMILES
64 nM	CN(O)C(=O)C(CC1CCCCC1)c1ccc(OCc2ccc3ccccc3n2)cc1 (stereo not drawn) [Example 3, 3-Cyclohexyl-2-[4-(quinolin-2-yl-methoxy)phenyl]propionic acid (N-hydroxy-N-methyl)amide]
33 nM	CN(O)C(=O)C(c1ccc(OCc2ccc3ccccc3n2)cc1)C1CCCCC1 (stereo not drawn) [Example 8, 2-Cyclohexyl-2-[4-(quinolin-2-yl-methoxy)phenyl]acetic acid N-hydroxy-N-methyl-amide]
66 nM	CN(O)C(=O)CON=C(CCCc1ccc(Cl)cc1)c1ccc(OCc2ccc3ccccc3n2)cc1 [Example 2, [(4-(4-Chlorophenyl)-1-(4-(2-quinolinylmethoxy)phenyl)butyl)oximino]acetic acid (N-hydroxy-N-methyl)amide]
132 nM	CN(O)C(=O)C=NOC(CCCc1ccc(Cl)cc1)c1ccc(OCc2ccc3ccccc3n2)cc1 (stereo not drawn) [Example 6, {[4-(4-Chlorophenyl)-1-(4-[2-quinolinylmethoxy]phenyl)butyl]iminoxy}acetic acid N-hydroxy-N-methyl-amide]
45 nM	CN(C)OC(=O)C(CC1CCCCC1)c1ccc(OCc2ccc3ccccc3n2)cc1 (stereo not drawn) [Example 17]
